ChEMBL document CHEMBL3045254, “Molecular modeling of the Toxoplasma gondii adenosine kinase inhibitors” (Med Chem Res, 2012)

Biological target: T1, Adenosine kinase (Toxoplasma gondii, UniProt Q9TVW2)
T1 sequence (Q9TVW2 whole entry): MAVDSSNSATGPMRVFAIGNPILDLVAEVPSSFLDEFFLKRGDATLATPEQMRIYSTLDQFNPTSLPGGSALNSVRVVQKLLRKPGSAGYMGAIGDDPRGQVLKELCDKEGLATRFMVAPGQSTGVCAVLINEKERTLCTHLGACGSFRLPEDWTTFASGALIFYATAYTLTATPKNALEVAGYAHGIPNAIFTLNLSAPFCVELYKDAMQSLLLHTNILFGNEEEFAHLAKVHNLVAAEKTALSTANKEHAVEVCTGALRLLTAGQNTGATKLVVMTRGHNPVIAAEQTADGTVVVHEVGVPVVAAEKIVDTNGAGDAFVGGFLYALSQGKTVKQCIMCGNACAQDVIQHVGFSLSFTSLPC
Test: Inhibition of Toxoplasma gondii adenosine kinase

SMILES | IC50 (read-out: IC50) | IC50 (read-out: pIC50 (converted)) | Ki
OC[C@H]1O[C@@H](n2cnc3c(NCc4cccc(F)c4)ncnc32)[C@H](O)[C@@H]1O | 23.2 µM | – | –
OC[C@H]1O[C@@H](n2cnc3c(NCc4ccc(F)cc4)ncnc32)[C@H](O)[C@@H]1O | 20.6 µM | – | –
OC[C@H]1O[C@@H](n2cnc3c(NCc4ccc(Cl)cc4)ncnc32)[C@H](O)[C@@H]1O | 25.8 µM | – | –
COc1ccccc1CNc1ncnc2c1ncn2[C@@H]1O[C@H](CO)[C@@H](O)[C@H]1O | 8.7 µM | – | –
OC[C@H]1O[C@@H](n2cnc3c(NCc4ccc(C(F)(F)F)cc4)ncnc32)[C@H](O)[C@@H]1O | 22.9 µM | – | –
COc1ccc(CNc2ncnc3c2ncn3[C@@H]2O[C@H](CO)[C@@H](O)[C@H]2O)cc1 | 7.5 µM | 7.19 µM | –
OC[C@H]1O[C@@H](n2cnc3c(NCc4ccc(Cl)c(Cl)c4)ncnc32)[C@H](O)[C@@H]1O | 14.3 µM | – | –
COc1ccc(CNc2ncnc3c2ncn3[C@@H]2O[C@H](CO)[C@@H](O)[C@H]2O)c(OC)c1 | 8.7 µM | – | –
OC[C@H]1O[C@@H](n2cnc3c(NCc4ccc(F)cc4F)ncnc32)[C@H](O)[C@@H]1O | 8.2 µM | – | –
N#Cc1ccc(CNc2ncnc3c2ncn3[C@@H]2O[C@H](CO)[C@@H](O)[C@H]2O)c(Cl)c1 | 21.1 µM | 10.4 µM | –
COc1ccc(CNc2ncnc3c2ncn3[C@@H]2O[C@H](CO)[C@@H](O)[C@H]2O)c(F)c1 | 9.5 µM | – | –
CC(C)(C)c1ccc(CSc2ncnc3c2ncn3[C@@H]2O[C@H](CO)[C@@H](O)[C@H]2O)cc1 | 23.3 µM | – | 113 µM
OC[C@H]1O[C@@H](n2cnc3c(SCc4ccccc4Cl)ncnc32)[C@H](O)[C@@H]1O | 6.7 µM | – | 1.4 µM
Cc1ccc(CSc2ncnc3c2ncn3[C@@H]2O[C@H](CO)[C@@H](O)[C@H]2O)cc1 | 7.8 µM | – | 3.3 µM
OC[C@H]1O[C@@H](n2cnc3c(NCc4ccccc4Cl)ncnc32)[C@H](O)[C@@H]1O | 10.6 µM | – | –
Cc1cccc(CNc2ncnc3c2ncn3[C@@H]2O[C@H](CO)[C@@H](O)[C@H]2O)c1 | 8.5 µM | – | –
Cc1ccc(CNc2ncnc3c2ncn3[C@@H]2O[C@H](CO)[C@@H](O)[C@H]2O)cc1 | 10.5 µM | – | –
OC[C@H]1O[C@@H](n2cnc3c(NCc4ccc(Cl)cc4Cl)ncnc32)[C@H](O)[C@@H]1O | 9.3 µM | – | –
OC[C@H]1O[C@@H](n2cnc3c(SCc4ccc(F)cc4)ncnc32)[C@H](O)[C@@H]1O | 10.3 µM | – | 1.2 µM
OC[C@H]1O[C@@H](n2cnc3c(SCc4ccc(Br)cc4)ncnc32)[C@H](O)[C@@H]1O | 14.3 µM | – | 7.5 µM
OC[C@H]1O[C@@H](n2cnc3c(SCc4ccc(OC(F)(F)F)cc4)ncnc32)[C@H](O)[C@@H]1O | 24.8 µM | – | 141 µM

SMILES | IC50 (read-out: IC50) | IC50 (read-out: pIC50 (converted)) | Ki
OC[C@H]1O[C@@H](n2cnc3c(NCc4ccccc4F)ncnc32)[C@H](O)[C@@H]1O | 37.8 µM | – | –
Cc1ccccc1CSc1ncnc2c1ncn2[C@@H]1O[C@H](CO)[C@@H](O)[C@H]1O | 7.7 µM | – | 1.5 µM
OC[C@H]1O[C@@H](n2cnc3c(SCc4ccc(Cl)c(Cl)c4)ncnc32)[C@H](O)[C@@H]1O | 10.4 µM | 21.1 µM | 2.5 µM
Cc1cccc(CSc2ncnc3c2ncn3[C@@H]2O[C@H](CO)[C@@H](O)[C@H]2O)c1 | 8.2 µM | – | 1.3 µM
OC[C@H]1O[C@@H](n2cnc3c(SCc4cccc(C(F)(F)F)c4)ncnc32)[C@H](O)[C@@H]1O | 8.7 µM | – | 2.9 µM
OC[C@H]1O[C@@H](n2cnc3c(SCc4c(F)cccc4Cl)ncnc32)[C@H](O)[C@@H]1O | 8.7 µM | – | 37.7 µM
OC[C@H]1O[C@@H](n2cnc3c(SCc4ccccc4F)ncnc32)[C@H](O)[C@@H]1O | 8.2 µM | – | –
Cc1cc(C)c(CSc2ncnc3c2ncn3[C@@H]2O[C@H](CO)[C@@H](O)[C@H]2O)c(C)c1 | 31.1 µM | – | 150 µM
OC[C@H]1O[C@@H](n2cnc3c(SCc4ccc(Cl)cc4)ncnc32)[C@H](O)[C@@H]1O | 8.11 µM | – | 2.1 µM
COc1ccc(CSc2ncnc3c2ncn3[C@@H]2O[C@H](CO)[C@@H](O)[C@H]2O)cc1 | 3.5 µM | – | 2.6 µM
OC[C@H]1O[C@@H](n2cnc3c(SCc4ccc(Cl)cc4Cl)ncnc32)[C@H](O)[C@@H]1O | 7.3 µM | – | 0.7 µM
O=[N+]([O-])c1cccc(CSc2ncnc3c2ncn3[C@@H]2O[C@H](CO)[C@@H](O)[C@H]2O)c1 | 6.2 µM | – | 3 µM
N#Cc1ccc(CSc2ncnc3c2ncn3[C@@H]2O[C@H](CO)[C@@H](O)[C@H]2O)cc1 | 4.3 µM | – | 0.9 µM
OC[C@H]1O[C@@H](n2cnc3c(SCc4ccccc4)ncnc32)[C@H](O)[C@@H]1O [6-BENZYLTHIOINOSINE] | 9.3 µM | – | 2.4 µM
OC[C@H]1O[C@@H](n2cnc3c(NCc4ccccc4)ncnc32)[C@H](O)[C@@H]1O [N6-BENZYLADENOSINE] | – | 794 µM | –
O=[N+]([O-])c1ccc(CSc2ncnc3c2ncn3[C@@H]2O[C@H](CO)[C@@H](O)[C@H]2O)cc1 [NITROBENZYLMERCAPTOPURINE RIBONUCLEOSIDE] | 12 µM | – | 1.1 µM
O=[N+]([O-])c1ccccc1CNc1ncnc2c1ncn2[C@@H]1O[C@H](CO)[C@@H](O)[C@H]1O [O-NITRO-N6-BENZYLADENOSINE] | 15 µM | – | –
CC(=O)Oc1ccc(CSc2ncnc3c2ncn3[C@@H]2O[C@H](CO)[C@@H](O)[C@H]2O)cc1 [P-ACETOXY-6-BENZYLTHIOINOSINE] | 15 µM | – | 96.1 µM
N#Cc1ccc(CNc2ncnc3c2ncn3[C@@H]2O[C@H](CO)[C@@H](O)[C@H]2O)cc1 [P-CYANO-N6-BENZYLADENOSINE] | 8.3 µM | – | –
CC(C)c1ccc(CNc2ncnc3c2ncn3[C@@H]2O[C@H](CO)[C@@H](O)[C@H]2O)cc1 [P-ISOPROPYL-N6-BENZYLADENOSINE] | 22 µM | – | –
C=Cc1ccc(CNc2ncnc3c2ncn3[C@@H]2O[C@H](CO)[C@@H](O)[C@H]2O)cc1 [P-VINYL-N6-BENZYLADENOSINE] | 26.2 µM | – | –
